Reference: US8338465B2, “Cyclic carboxylic acid rhodanine derivatives for the treatment and prevention of tuberculosis” (priority 2006, dated 2012)
pIC50: −log10 of the molar value.

Molecular target: T1, dihydrolipoamide acyltransferase (DlaT) (Mycobacterium tuberculosis, UniProt P9WIS7)
T1 sequence (P9WIS7 1-553): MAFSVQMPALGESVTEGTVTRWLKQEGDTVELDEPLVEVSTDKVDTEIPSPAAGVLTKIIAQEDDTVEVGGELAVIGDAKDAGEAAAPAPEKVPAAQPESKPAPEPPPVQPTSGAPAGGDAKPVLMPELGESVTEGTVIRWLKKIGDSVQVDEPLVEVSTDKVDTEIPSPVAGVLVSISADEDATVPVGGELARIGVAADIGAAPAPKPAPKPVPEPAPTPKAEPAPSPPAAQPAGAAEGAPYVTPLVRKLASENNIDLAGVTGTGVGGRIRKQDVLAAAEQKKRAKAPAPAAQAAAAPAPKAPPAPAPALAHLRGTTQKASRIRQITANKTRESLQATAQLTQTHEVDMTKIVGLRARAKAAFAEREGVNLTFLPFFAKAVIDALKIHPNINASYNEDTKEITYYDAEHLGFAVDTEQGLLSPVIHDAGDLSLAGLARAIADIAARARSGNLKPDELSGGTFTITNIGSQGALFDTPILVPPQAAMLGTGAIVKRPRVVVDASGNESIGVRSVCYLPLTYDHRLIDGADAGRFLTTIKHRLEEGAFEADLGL
Assay: DlaT inhibition (Dlat IC50); DTNB peroxidase assay with Lpd, DlaT and AhpD
Format: biochemical
Settings: Dlat IC50 category

Compound | pIC50
CC(C)(C)c1ccc(-c2ccc(C=C3SC(=S)N(Nc4ccccc4C(=O)O)C3=O)o2)cc1 (single isomer, unassigned) [Compound D2, 2-{5-[1-[5-(4-tert-butyl-phenyl)-furan-2-yl]-meth-(E)-ylidene]-4-oxo-2-thioxo-thiazolidin-3-ylamino}-benzoic acid] | > 5.00
O=C(O)c1ccccc1NN1C(=O)/C(=C\c2ccc(-c3ccc(N4CCOCC4)cc3)o2)SC1=S (single isomer, unassigned) [Compound D6, 2-{5-[1-[5-(4-morpholin-4-yl-phenyl)-furan-2-yl]-meth-(E)-ylidene]-4-oxo-2-thioxo-thiazolidin-3-ylamino}-benzoic acid] | 4.40 to 4.96

Same assay, conditions: Table 1, Compounds A1 to A294; read-out: Dlat IC50 category

Compound | pIC50
O=C(O)c1cccc(N2C(=O)C(=Cc3ccc(-c4cccc(C(F)(F)F)c4)o3)SC2=S)c1 [Compound A2] | > 5.00
O=C(O)c1cccc(N2C(=O)C(=Cc3ccc(-c4ccc(Cc5ccccc5)cc4)o3)SC2=S)c1 [Compound A3] | > 5.00
O=C(O)c1cccc(N2C(=O)C(=Cc3ccc(-c4cccc(Cl)c4)o3)SC2=S)c1 [Compound A4] | 4.40 to 4.96
O=C(O)c1cccc(N2C(=O)C(=Cc3cccc(-c4ccccc4Cl)n3)SC2=S)c1 [Compound A5] | < 4.39
NS(=O)(=O)c1ccc(N2C(=O)C(=Cc3ccc(-c4ccccc4Cl)o3)SC2=S)cc1 [Compound A6] | 4.40 to 4.96
O=C(O)c1cccc(N2C(=O)C(=Cc3ccc(-c4ccc(Cl)c(Cl)c4)o3)SC2=S)c1 [Compound A7] | > 5.00
O=C(O)c1ccc(N2C(=O)C(=Cc3ccc(-c4ccc(Cl)c(Cl)c4)o3)SC2=S)cc1 [Compound A8] | > 5.00
NS(=O)(=O)c1ccc(N2C(=O)C(=Cc3ccc(-c4ccc(Cl)c(Cl)c4)o3)SC2=S)cc1 [Compound A9] | 4.40 to 4.96
O=C(O)c1ccc(N2C(=O)C(=Cc3ccc(-c4cccc(C(F)(F)F)c4)o3)SC2=S)cc1 [Compound A10] | 4.40 to 4.96
O=C(O)c1ccc(N2C(=O)C(=Cc3ccc(-c4ccc(Cc5ccccc5)cc4)o3)SC2=S)cc1 [Compound A11] | 4.40 to 4.96
NS(=O)(=O)c1ccc(N2C(=O)C(=Cc3ccc(-c4ccc(Cc5ccccc5)cc4)o3)SC2=S)cc1 [Compound A12] | 4.40 to 4.96
O=C(O)c1cccc(N2C(=O)C(=Cc3ccc(-c4ccc(Oc5ccccc5)cc4)o3)SC2=S)c1 [Compound A13] | > 5.00
O=C(O)c1ccc(N2C(=O)C(=Cc3ccc(-c4ccc(Oc5ccccc5)cc4)o3)SC2=S)cc1 [Compound A14] | 4.40 to 4.96
NS(=O)(=O)c1ccc(N2C(=O)C(=Cc3ccc(-c4ccc(Oc5ccccc5)cc4)o3)SC2=S)cc1 [Compound A15] | < 4.39
O=C(O)c1ccc(N2C(=O)C(=Cc3ccc(-c4ccccc4Cl)o3)SC2=S)cc1 [Compound A16] | < 4.39
NS(=O)(=O)c1ccc(N2C(=O)C(=Cc3ccc(-c4ccc(Cl)cc4)o3)SC2=S)cc1 [Compound A17] | 4.40 to 4.96
NS(=O)(=O)c1ccc(N2C(=O)C(=Cc3ccc(-c4cccc(C(F)(F)F)c4)o3)SC2=S)cc1 [Compound A18] | 4.40 to 4.96
NS(=O)(=O)c1ccc(N2C(=O)C(=Cc3ccc(-c4cccc(Cl)c4)o3)SC2=S)cc1 [Compound A19] | 4.40 to 4.96
O=C(O)c1ccc(N2C(=O)C(=Cc3ccc(-c4ccc(Cl)cc4)o3)SC2=S)cc1 [Compound A20] | > 5.00
O=C(O)c1cccc(N2C(=O)C(=Cc3ccc(-c4ccc(Cl)cc4)o3)SC2=S)c1 [Compound A21] | > 5.00
O=C1C(=Cc2ccc(-c3ccccc3Cl)o2)SC(=S)N1c1ccc(O)cc1 [Compound A22] | > 5.00

Compound | pIC50
O=C1C(=Cc2ccc(-c3cccc(C(F)(F)F)c3)o2)SC(=S)N1c1ccc(O)cc1 [Compound A23] | > 5.00
O=C1C(=Cc2ccc(-c3ccc(Cl)cc3)o2)SC(=S)N1c1ccc(O)cc1 [Compound A24] | > 5.00
NS(=O)(=O)c1cccc(N2C(=O)C(=Cc3ccc(-c4ccccc4Cl)o3)SC2=S)c1 [Compound A25] | 4.40 to 4.96
NS(=O)(=O)c1cccc(N2C(=O)C(=Cc3ccc(-c4cccc(C(F)(F)F)c4)o3)SC2=S)c1 [Compound A26] | 4.40 to 4.96
NS(=O)(=O)c1cccc(N2C(=O)C(=Cc3ccc(-c4ccc(Cl)cc4)o3)SC2=S)c1 [Compound A27] | > 5.00
O=C(O)c1cccc(N2C(=O)C(=Cc3cc(-c4cccc(C(F)(F)F)c4)co3)SC2=S)c1 [Compound A28] | > 5.00
O=C(O)c1ccc(N2C(=O)C(=Cc3cc(-c4cccc(C(F)(F)F)c4)co3)SC2=S)cc1 [Compound A29] | 4.40 to 4.96
CC(=O)NS(=O)(=O)c1ccc(N2C(=O)C(=Cc3ccc(-c4ccc(Cl)c(Cl)c4)o3)SC2=S)cc1 [Compound A30] | > 5.00
CC(=O)NS(=O)(=O)c1ccc(N2C(=O)C(=Cc3ccc(-c4cccc(C(F)(F)F)c4)o3)SC2=S)cc1 [Compound A31] | > 5.00
O=C(O)c1cc(N2C(=O)C(=Cc3ccc(-c4cccc(C(F)(F)F)c4)o3)SC2=S)ccc1O [Compound A32] | > 5.00
O=C(O)c1cc(N2C(=O)C(=Cc3ccc(-c4ccccc4Cl)o3)SC2=S)ccc1O [Compound A33] | > 5.00
O=C(O)c1cc(N2C(=O)C(=Cc3ccc(-c4ccc(Cl)cc4)o3)SC2=S)ccc1O [Compound A34] | > 5.00
O=C(O)c1cccc(N2C(=O)C(=Cc3ccc(-c4ccc(Cl)cc4Cl)o3)SC2=S)c1 [Compound A35] | 4.40 to 4.96
O=C(O)c1cccc(N2C(=O)C(=Cc3ccc(-c4cc(Cl)ccc4Cl)o3)SC2=S)c1 [Compound A36] | > 5.00
CC(=O)NS(=O)(=O)c1cccc(N2C(=O)C(=Cc3ccc(-c4ccccc4Cl)o3)SC2=S)c1 [Compound A37] | 4.40 to 4.96
CC(=O)NS(=O)(=O)c1cccc(N2C(=O)C(=Cc3ccc(-c4cccc(C(F)(F)F)c4)o3)SC2=S)c1 [Compound A38] | > 5.00
O=C(O)c1cccc(N2C(=O)C(=Cc3ccc(-c4c(Cl)cccc4Cl)o3)SC2=S)c1 [Compound A39] | 4.40 to 4.96
O=C(O)c1cc(N2C(=O)C(=Cc3ccc(-c4ccc(Cl)cc4Cl)o3)SC2=S)ccc1O [Compound A40] | 4.40 to 4.96
O=C(O)c1cc(N2C(=O)C(=Cc3ccc(-c4cc(Cl)ccc4Cl)o3)SC2=S)ccc1O [Compound A41] | 4.40 to 4.96
O=C(O)c1cc(N2C(=O)C(=Cc3ccc(-c4c(Cl)cccc4Cl)o3)SC2=S)ccc1O [Compound A42] | 4.40 to 4.96
O=C(O)c1cccc(N2C(=O)C(=Cc3ccc(-c4cc(C(F)(F)F)ccc4Cl)o3)SC2=S)c1 [Compound A44] | > 5.00

Compound | pIC50
O=C(O)COc1ccc(N2C(=O)C(=Cc3ccc(-c4ccc(Cl)cc4)o3)SC2=S)cc1 [Compound A45] | 4.40 to 4.96
CC(C)c1ccc(-c2ccc(C=C3SC(=S)N(c4cccc(C(=O)O)c4)C3=O)o2)cc1 [Compound A46] | > 5.00
CC(C)c1ccc(-c2ccc(C=C3SC(=S)N(c4ccc(O)c(C(=O)O)c4)C3=O)o2)cc1 [Compound A47] | > 5.00
O=C(O)c1cccc(N2C(=O)C(=Cc3ccc(-c4ccc(C(=O)c5ccccc5)cc4)o3)SC2=S)c1 [Compound A48] | > 5.00
O=C1C(=Cc2ccc(-c3ccccc3Cl)o2)SC(=S)N1c1cccc(O)c1 [Compound A49] | 4.40 to 4.96
O=C1C(=Cc2ccc(-c3cccc(C(F)(F)F)c3)o2)SC(=S)N1c1cccc(O)c1 [Compound A50] | 4.40 to 4.96
O=C1C(=Cc2ccc(-c3ccc(Cl)cc3)o2)SC(=S)N1c1cccc(O)c1 [Compound A51] | 4.40 to 4.96
CC(C)c1ccc(-c2ccc(C=C3SC(=S)N(c4cccc(O)c4)C3=O)o2)cc1 [Compound A52] | 4.40 to 4.96
O=C(O)c1cccc(N2C(=O)C(=Cc3ccc(-c4ccc(CSc5ccccc5)cc4)o3)SC2=S)c1 [Compound A53] | 4.40 to 4.96
CC(C)c1cccc(-c2ccc(C=C3SC(=S)N(c4cccc(C(=O)O)c4)C3=O)o2)c1 [Compound A54] | > 5.00
CC(C)c1cccc(-c2ccc(C=C3SC(=S)N(c4cccc(O)c4)C3=O)o2)c1 [Compound A55] | 4.40 to 4.96
O=C(O)c1cccc(N2C(=O)C(=Cc3ccc(-c4ccc(C5CCCCC5)cc4)o3)SC2=S)c1 [Compound A56] | > 5.00
O=C(O)c1cc(N2C(=O)C(=Cc3ccc(-c4ccc(C5CCCCC5)cc4)o3)SC2=S)ccc1O [Compound A57] | > 5.00
CC(C)(C)c1ccc(-c2ccc(C=C3SC(=S)N(c4cccc(C(=O)O)c4)C3=O)o2)cc1 [Compound A58] | > 5.00
CC(C)(C)c1ccc(-c2ccc(C=C3SC(=S)N(c4ccc(O)c(C(=O)O)c4)C3=O)o2)cc1 [Compound A59] | > 5.00
O=C(O)COc1cccc(N2C(=O)C(=Cc3ccc(-c4ccc(Cl)cc4)o3)SC2=S)c1 [Compound A60] | 4.40 to 4.96
CC(C)c1cccc(-c2ccc(C=C3SC(=S)N(c4ccc(O)c(C(=O)O)c4)C3=O)o2)c1 [Compound A61] | > 5.00
O=C(O)c1cc(N2C(=O)C(=Cc3ccc(-c4ccc(CSc5ccccc5)cc4)o3)SC2=S)ccc1O [Compound A62] | 4.40 to 4.96
CC(C)c1cccc(-c2ccc(C=C3SC(=S)N(c4cccc(OCC(=O)O)c4)C3=O)o2)c1 [Compound A63] | > 5.00
CC(C)Cc1ccc(-c2ccc(C=C3SC(=S)N(c4cccc(C(=O)O)c4)C3=O)o2)cc1 [Compound A64] | > 5.00

Same assay, conditions: read-out: Dlat IC50 category

Compound | pIC50
2-{5-[2-(2-Chloro-benzyloxy)-benzylidene]-4-oxo-2-thioxo-thiazolidin-3-ylamino}-benzoic acid [Compound D32] | > 5.00
